Measurements as given in patent US8598374B2, “GPR120 receptor agonists and uses thereof” (Metabolex, Inc, priority 2008, dated 2013).

Target: T1, human GPR120 (Homo sapiens, UniProt Q5NUL3)
T1 construct: Flag (DYKDDDDK) (N); host or cells: HEK293 cells co-expressing Gqi5
T1 sequence (Q5NUL3 1-361): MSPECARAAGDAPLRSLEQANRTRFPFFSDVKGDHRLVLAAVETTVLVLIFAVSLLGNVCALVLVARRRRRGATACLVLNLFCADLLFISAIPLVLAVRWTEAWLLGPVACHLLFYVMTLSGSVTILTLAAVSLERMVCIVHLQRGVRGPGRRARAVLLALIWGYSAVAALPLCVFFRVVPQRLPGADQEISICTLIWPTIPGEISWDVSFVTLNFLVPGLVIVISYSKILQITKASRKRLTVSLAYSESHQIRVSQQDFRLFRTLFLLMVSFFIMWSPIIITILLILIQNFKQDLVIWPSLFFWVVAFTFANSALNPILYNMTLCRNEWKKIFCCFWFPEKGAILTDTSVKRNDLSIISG
Experiment: Intracellular Ca2+ assay (FLIPR Calcium 4, Flexstation) in human GPR120 stable cell line
Type: cell-based
Settings: % activity at 2.5 μM compared to the maximal activity of the compound of Example 25 at 2.5 μM; HEK293 cells co-expressing Gqi5
Outline: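 HEK293 cells co-expressing Gqi5 and stably expressing Flag-tagged human GPR120 were seeded at 70,000 cells per well in poly-D-lysine coated 96 well plates and loaded with FLIPR Calcium 4 dye for 50 minutes at 37° C. On a Flexstation, compound-induced fluorescence (excitation 485 nm, emission 525) was recorded for 90 seconds. Percent activity was expressed against a reference agonist's maximal activity at 2.5 μM, set as 100%.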

| SMILES | % Activity (Ex. 25 Reference Compound) |
| --- | --- |
| [2H]C1([2H])c2cc(Cl)cc(COc3ccc(CC(C)C(=O)O)cc3F)c2OC1(C)C (stereo not shown) [Example 146, 3-(4-((3,3-dideuterio-5-chloro-2,2-dimethyl-2,3-dihydrobenzofuran-7-yl)methoxy)-3-fluorophenyl)-2-methylpropanoic acid] | 140.72% |
| C[C@H](Cc1ccc(OCc2cc(Cl)cc3c2OC(C)(C)C3)c(F)c1)C(=O)O [Example 141, (R)-3-(4-((5-chloro-2,2-dimethyl-2,3-dihydrobenzofuran-7-yl)methoxy)-3-fluorophenyl)-2-methylpropanoic acid] | 143.3% |
| CCc1cc(OCc2cc(F)cc3c2OC(C)(C)C3)ccc1CCC(=O)O [Example 134, 3-(2-ethyl-4-((5-fluoro-2,2-dimethyl-2,3-dihydrobenzofuran-7-yl)methoxy)phenyl)propanoic acid] | 151.44% |
| CC(C)Oc1cc(OCc2cc(F)cc3c2OC(C)(C)C3)ccc1CCC(=O)O [Example 115, 3-(4-((5-fluoro-2,2-dimethyl-2,3-dihydrobenzofuran-7-yl)methoxy)-2-isopropoxyphenyl)propanoic acid] | 151.78% |
| CCCc1cc(OCc2cc(Cl)cc3c2OC(C)(C)C3)c(F)cc1CCC(=O)O [Example 73, 3-(4-((5-chloro-2,2-dimethyl-2,3-dihydrobenzofuran-7-yl)methoxy)-5-fluoro-2-propylphenyl)propanoic acid] | 114.85% |
| CCc1c(CCC(=O)O)ccc(OCc2cc(F)cc3c2OC(C)(C)C3)c1F [Example 216, 3-(2-ethyl-3-fluoro-4-((5-fluoro-2,2-dimethyl-2,3-dihydrobenzofuran-7-yl)methoxy)phenyl)propanoic acid] | 144.23% |
| CC(Cc1cccc(OCc2cc(Cl)cc3c2OC(C)(C)C3)c1)C(=O)O (stereo not shown) [Example 251, 3-(3-((5-chloro-2,2-dimethyl-2,3-dihydrobenzofuran-7-yl)methoxy)phenyl)-2-methylpropanoic acid] | 61.14% |
| CC1(C)Cc2cc(Cl)cc(COc3ccc(SCC(=O)O)cc3)c2O1 [Example 59, 2-((4-((5-chloro-2,2-dimethyl-2,3-dihydrobenzofuran-7-yl)methoxy)phenyl)thio)-acetic acid] | 117.58% |
| CC1(C)Cc2cc(Cl)cc(COc3c(F)cc(C4CC4CC(=O)O)cc3F)c2O1 (stereo not shown) [Example 41, 2-(2-(4-((5-chloro-2,2-dimethyl-2,3-dihydrobenzofuran-7-yl)methoxy)-3,5-difluorophenyl)cyclopropyl)acetic acid] | 116.46% |
| CC(C)Oc1ccc(Cl)cc1COc1cc2c(cc1F)C(CC(=O)O)CC2 (stereo not shown) [Example 257, 2-(5-((5-chloro-2-isopropoxybenzyl)oxy)-6-fluoro-2,3-dihydro-1H-inden-1-yl)acetic acid] | 124.62% |
| CC(Cc1cc(F)c(OCc2cccc3cn[nH]c23)c(F)c1)C(=O)O (stereo not shown) [Example 260, 3-(4-((1H-indazol-7-yl)methoxy)-3,5-difluorophenyl)-2-methylpropanoic acid] | 16.67% |
| CC(Cc1ccc(NC(=O)c2cc(F)cc3c2OC(C)(C)C3)cc1)C(=O)O (stereo not shown) [Example 68, 3-(4-(5-fluoro-2,2-dimethyl-2,3-dihydrobenzofuran-7-carboxamido)phenyl)-2-methylpropanoic acid] | 69.03% |
| Cc1c(CCC(=O)O)ccc(OCc2cc(Cl)cc3c2CC(C)(C)O3)c1C [Example 267, 3-(4-((6-chloro-2,2-dimethyl-2,3-dihydrobenzofuran-4-yl)methoxy)-2,3-dimethylphenyl)propanoic acid] | 140.82% |
| CC(C)Oc1cc(OCc2cc(Cl)cc3c2OC(C)(C)C3)ccc1CCC(=O)O [Example 116, 3-(4-((5-chloro-2,2-dimethyl-2,3-dihydrobenzofuran-7-yl)methoxy)-2-isopropoxyphenyl)propanoic acid] | 145.6% |
| CC1(C)Cc2cc(F)cc(COc3ccc4c(c3)CCCC4CC(=O)O)c2O1 (stereo not shown) [Example 153, 2-(6-((5-fluoro-2,2-dimethyl-2,3-dihydrobenzofuran-7-yl)methoxy)-1,2,3,4-tetrahydronaphthalen-1-yl)acetic acid] | 106.81% |
| CCN(CC)c1cc(COc2ccc(CC(C)C(=O)O)cc2)c2c(c1)CC(C)(C)O2 (stereo not shown) [Example 89, 3-(4-((5-(diethylamino)-2,2-dimethyl-2,3-dihydrobenzofuran-7-yl)methoxy)phenyl)-2-methylpropanoic acid] | 82.28% |
| CC(=O)NCCOC(=O)C(C)Cc1ccc(OCc2cc(Cl)cc3c2OC(C)(C)C3)c(C(F)(F)F)c1 (stereo not shown) [Example 126, 2-acetamidoethyl 3-(4-((5-chloro-2,2-dimethyl-2,3-dihydrobenzofuran-7-yl)methoxy)-3-(trifluoromethyl)phenyl)-2-methylpropanoate] | 47.02% |
| CC1(C)Cc2cc(Cl)cc(COc3cc(F)c(CCC(=O)O)c(F)c3)c2O1 [Example 54, 3-(4-((5-chloro-2,2-dimethyl-2,3-dihydrobenzofuran-7-yl)methoxy)-2,6-difluorophenyl)propanoic acid] | 138.97% |
| CC1(C)Cc2cc(Cl)cc(COc3ccc(CCC(=O)O)c(-c4ccccc4)c3)c2O1 [Example 71, 3-(5-((5-chloro-2,2-dimethyl-2,3-dihydrobenzofuran-7-yl)methoxy)-[1,1′-biphenyl]-2-yl)propanoic acid] | 133.8% |

Same assay, conditions: human GPR120 stably expressing cells, eight concentrations from 0.00001 to 20 μM

| SMILES | EC50 |
| --- | --- |
| CCc1cc(OCc2cc(F)cc3c2OC(C)(C)C3)ccc1/C=C/C(=O)O [Example 60, (E)-3-(2-ethyl-4-((5-fluoro-2,2-dimethyl-2,3-dihydrobenzofuran-7-yl)methoxy)phenyl)acrylic acid] | 1 to 10 µM |
| CC(Cc1ccc(OCc2ccc(C(F)(F)F)c3c2OC(C)(C)C3)c(F)c1)C(=O)O (stereo not shown) [Example 33, 3-(4-((2,2-dimethyl-4-(trifluoromethyl)-2,3-dihydrobenzofuran-7-yl)methoxy)-3-fluorophenyl)-2-methylpropanoic acid] | 1 to 10 µM |
| CC1(C)Cc2cc(Cl)cc(COc3ccc(SCC(=O)O)cc3)c2O1 [Example 59, 2-((4-((5-chloro-2,2-dimethyl-2,3-dihydrobenzofuran-7-yl)methoxy)phenyl)thio)-acetic acid] | 1 to 10 µM |
| C[C@@H](Cc1ccc(OCc2cc(F)cc3c2OC(C)(C)C3)cc1)C(=O)O [Example 66, (S)-3-(4-((5-fluoro-2,2-dimethyl-2,3-dihydrobenzofuran-7-yl)methoxy)phenyl)-2-methylpropanoic acid] | 1 to 10 µM |
| CC1(C)Cc2cc(F)cc(COc3ccc(CCC(=O)O)c(F)c3)c2O1 [Example 48, 3-(2-fluoro-4-((5-fluoro-2,2-dimethyl-2,3-dihydrobenzofuran-7-yl)methoxy)phenyl)propanoic acid] | 1 to 10 µM |
| CCN(CC)c1cc(COc2ccc(CC(C)C(=O)O)cc2)c2c(c1)CC(C)(C)O2 (stereo not shown) [Example 89, 3-(4-((5-(diethylamino)-2,2-dimethyl-2,3-dihydrobenzofuran-7-yl)methoxy)phenyl)-2-methylpropanoic acid] | 1 to 10 µM |
| CC(=O)NCCOC(=O)C(C)Cc1ccc(OCc2cc(Cl)cc3c2OC(C)(C)C3)c(C(F)(F)F)c1 (stereo not shown) [Example 126, 2-acetamidoethyl 3-(4-((5-chloro-2,2-dimethyl-2,3-dihydrobenzofuran-7-yl)methoxy)-3-(trifluoromethyl)phenyl)-2-methylpropanoate] | 1 to 10 µM |
| CC1(C)Cc2cc(Cl)cc(COc3cc(F)c(CCC(=O)O)c(F)c3)c2O1 [Example 54, 3-(4-((5-chloro-2,2-dimethyl-2,3-dihydrobenzofuran-7-yl)methoxy)-2,6-difluorophenyl)propanoic acid] | 1 to 10 µM |

Same assay, conditions: typical value, reference compound

| SMILES | concentration at which activity reached a maximum |
| --- | --- |
| CC1(C)Cc2cccc(COc3c(F)cc(CCC(=O)O)cc3F)c2O1 [Example 25, 3-(4-((2,2-dimethyl-2,3-dihydrobenzofuran-7-yl)methoxy)-3,5-difluorophenyl)propanoic acid] | approximately 2.5 μM |
